Experimental data published in patent US20250049904A1, “IMMUNOSTIMULATORY COMPOSITIONS” (VICTORIA LINK LIMITED, priority 2021, published 2025).
Entries after “also recorded” stand apart in the source; their conditions may differ.

Test system: tissue-resident memory T cells (TRM cells)
Assay: LPX-mRNA vaccination of mice i.v.; antigen-specific TRM, TEM and TCM cells in liver and spleen by flow cytometry
Assay type: in vivo, C57BL/6 mice
Description: FIG. 1 provides a graphical representation showing that LPX-mRNA vaccines containing CI058 induce high levels of liver TRM cells. Liposomes were prepared with DOTMA and DOPE lipids and complexed with mRNA encoding chicken ovalbumin (OVA) to give vaccine LPX-mOVA. Additional vaccines were prepared by including either the prototypical NKT cell agonist α-GalCer (LPX-mOVA-α-GalCer) or the derivative CI058, which has BODIPY attached via an —S in the 6 position of the galactose (LPX-mOVA-CI058). Recipient C57BL/6 mice were transferred 50,000 naïve OVA-specific TCR-transgenic CD8+ T cells (OT-I cells) to enhance the precursor frequency of antigen-specific T cells to aid detection of vaccine-induced responses. A day later, groups of mice (n=5-6) were vaccinated intravenously (0.08 nmol) with the different vaccines; a naive mouse was left untreated. After 28 days, mice were killed and liver and spleen collected for analysis of induced T cell response by flow cytometry. Antigen-specific cells were identified using fluorescent MHC/peptide tetramers containing the targeted CD8^+ T cell epitope recognised by OT-I cells, and expression of Ly5.1, a congenic marker expressed by the OT-I mouse strain and not recipient C57BL/6 mice. The antigen-specific cells were further characterised as resident-memory T cells (TRM cells; CD8^+ Ly5.1^+ […] CD62L^low cells), effector memory T cells (TEM cells; CD8^+ Ly5.1^+ CD44^+ CD69^− CD62L^low cells) or central memory cells (TCM cells; CD8^+ Ly5.1^+ CD44^+ CD69^− CD62Lhigh cells). (A) Percentages of TRM, TEM and TCM OT-I cells in each treatment group in liver. Mean±SEM for each T cell subset are shown; statistical analysis relates only to pairwise comparisons of the percentage of TRM cells between the treatment groups. Black bars: TRM cells; white bars: TEM cells; grey bars: TCM cells. *P<0.05, **P<0.01, ***P<0.001, ****P<0.0001. One-way ANOVA. (B) Percentages of RM, TEM and TCM OT-I cells in each treatment group in spleen. (C) Mean number of TRM cells in liver for each treatment group (±SEM); dots represent individual mice. Black bars: TRM cells; white bars: TEM cells; grey bars: TCM cells. *P<0.05, **P<0.01, ***P<0.001, ****P<0.0001. One-way ANOVA.
Dose response of LPX-mOVA-α-GalCer versus LPX-mOVA-CI058 vaccines. Analysis was in C57BL/6 mice, without transfer of OT-I cells, so endogenous T cell responses were monitored on a normal T cell repertoire. Groups of 5 mice were used, and vaccines were administered intravenously. After 28 days, mice were killed and liver tissue collected for analysis of induced T cell response by flow cytometry. Antigen-specific cells were identified using fluorescent MHC/peptide tetramers, and further characterised as resident-memory T cells (TRM CD8^+ CD44^+ CD69^+ CXCR6^+ CD49a^+ CD62L^low cells), effector memory T cells (TEM CD8^+ CD44^+ CD69^− KLRG1^+ CXCR3^+ CD62L^low cells) or central memory cells (TCM CD8^+ CD44^+ CD69^− CD62L^high cells). At the same timer, NKT cells in the liver were also evaluated using fluorescent CD1d/α-GalCer tetramers. These were characterised for expression of different markers of activation, including PD-1 (only the latter is shown here). White circles: LPX-mOVA-α-GalCer; black circles: LPX-mOVA-CI058. (A) Graph showing mean number of TRM cells in liver for each treatment group (±SEM) overdose range. ****P<0.0001. (B) Graph showing mean level of expression of the “invariant” NKT cell-associated TCR for each treatment group (±SEM), defined as level of binding of fluorescent CD1d/α-GalCer tetramers and expressed as mean fluorescence index. ****P<0.0001 (C) Graph showing mean level of expression of PD-1 on NKT cells for each treatment group (±SEM). **P<0.01
To examine whether a prodrug mechanism is involved in enhanced TRM cell induction, LPX-mOVA-CI058 vaccines were compared to vaccines containing different NKT cell agonist prodrugs. […]

Structure (SMILES): CCCCCCCCCCCCCCCCCCCCCCCCCC(=O)N[C@@H](CO[C@H]1O[C@H](CSCC(=O)Nc2ccc(C3=C4C(C)=CC(C)=[N+]4[B-](F)(F)n4c(C)cc(C)c43)cc2)[C@H](O)[C@H](O)[C@H]1O)[C@H](O)[C@H](O)CCCCCCCCCCCCCC [CI058, (2S,3S,4R)-1-(6-Deoxy-6-((2-((4-(5,5-difluoro-1,3,7,9-tetramethyl-5H-4λ4,5λ4-dipyrrolo[1,2-c:2′,1′-f][1,3,2]diazaborinin-10-yl)phenyl)amino)-2-oxoethyl)thio)-α-D-galactopyranosyloxy)-2-hexacosanoylamino-3,4-octadecandiol]
- overall level of T cell accumulation in liver (LPX vaccines with vs without CI058): higher overall levels of T cell accumulation in liver
- accumulation (population size) of TRM cells in liver (LPX-mOVA vaccines i.v., 28-30 days, compared to vaccines with α-GalCer or without agonist): significantly larger populations of TRM cells in the liver tissue; also recorded: significantly enhanced populations of liver TRM cells; also recorded: also enhanced
- proportion of TRM cells among antigen-specific T cells in liver and spleen (LPX-mOVA vaccines i.v., OT-I cell transfer, 28 days after vaccination): enhanced in both tissues, although is consistently more pronounced in liver; also recorded: significantly biased towards TRM cells
- peak level of liver TRM cells in dose response (LPX-mOVA-CI058 vs LPX-mOVA-α-GalCer, no OT-I transfer, day 28): significantly higher than achieved with vaccines with α-GalCer
- lower dose giving parity in liver TRM cell levels with α-GalCer vaccine (dose response, LPX-mOVA-CI058 vs LPX-mOVA-α-GalCer, no OT-I transfer, day 28): 10 fold
- liver TRM cell induction, vaccine encoding malaria antigen RPL6 (endogenous T cell response, no T cell transfer, 30 days): enhancing liver TRM cell induction
